Measured values: patent publication USRE38117E1, “Trioxane dimer compound having antiproliferative and antitumor activities” (Hauser, Inc., priority 1995, dated 2003)

Tests used:
Assay type in all cases: cell-based
SK-OV-3 = test: NCI 60 cell line screen (SRB), Ovarian Cancer; conditions: SK-OV-3 (Ovarian Cancer)
UACC-257 = test: NCI 60 cell line screen (SRB), Melanoma; conditions: UACC-257 (Melanoma)
NCI-H23 = test: NCI 60 cell line screen (SRB), Non-Small Cell Lung Cancer
OVCAR-4 = test: NCI 60 cell line screen (SRB), Ovarian Cancer; conditions: OVCAR-4 (Ovarian Cancer)
SK-MEL-5 = test: NCI 60 cell line screen (SRB), Melanoma; conditions: SK-MEL-5 (Melanoma)
NCI-H460 = test: NCI 60 cell line screen (SRB), Non-Small Cell Lung Cancer
HL-60(TB) = test: NCI 60 cell line screen (SRB), Leukemia; conditions: HL-60(TB) (Leukemia)
HT29 = test: NCI 60 cell line screen (SRB), Colon Cancer
MDA-MB-435 = test: NCI 60 cell line screen (SRB), Breast Cancer; conditions: MDA-MB-435 (Breast Cancer)
SF-539 = test: NCI 60 cell line screen (SRB), CNS Cancer; conditions: SF-539 (CNS Cancer)
M14 = test: NCI 60 cell line screen (SRB), Melanoma
MOLT-4 = test: NCI 60 cell line screen (SRB), Leukemia; conditions: MOLT-4 (Leukemia)
786-0 = test: NCI 60 cell line screen (SRB), Renal Cancer; conditions: 786-0 (Renal Cancer)
NCI-H226 = test: NCI 60 cell line screen (SRB), Non-Small Cell Lung Cancer
OVCAR-5 = test: NCI 60 cell line screen (SRB), Ovarian Cancer; conditions: OVCAR-5 (Ovarian Cancer)
SR = test: NCI 60 cell line screen (SRB), Leukemia
PC-3 = test: NCI 60 cell line screen (SRB), Prostate Cancer; conditions: PC-3 (Prostate Cancer)
CCRF-CEM = test: NCI 60 cell line screen (SRB), Leukemia
NCI-H522 = test: NCI 60 cell line screen (SRB), Non-Small Cell Lung Cancer
TK-10 = test: NCI 60 cell line screen (SRB), Renal Cancer; conditions: TK-10 (Renal Cancer)
HCT-116 = test: NCI 60 cell line screen (SRB), Colon Cancer; conditions: HCT-116 (Colon Cancer)
UACC-62 = test: NCI 60 cell line screen (SRB), Melanoma; conditions: UACC-62 (Melanoma)
HCC-2998 = test: NCI 60 cell line screen (SRB), Colon Cancer; conditions: HCC-2998 (Colon Cancer)
MDA-MB231/ATCC = test: NCI 60 cell line screen (SRB), Breast Cancer
K-562 = test: NCI 60 cell line screen (SRB), Leukemia; conditions: K-562 (Leukemia)
EKVX = test: NCI 60 cell line screen (SRB), Non-Small Cell Lung Cancer
MALME-3M = test: NCI 60 cell line screen (SRB), Melanoma; conditions: MALME-3M (Melanoma)
IGROVI = test: NCI 60 cell line screen (SRB), Ovarian Cancer
SK-MEL-2 = test: NCI 60 cell line screen (SRB), Melanoma; conditions: SK-MEL-2 (Melanoma)
SNB-75 = test: NCI 60 cell line screen (SRB), CNS Cancer; conditions: SNB-75 (CNS Cancer)
HOP-62 = test: NCI 60 cell line screen (SRB), Non-Small Cell Lung Cancer; conditions: HOP-62 (Non-Small Cell Lung Cancer)
A498 = test: NCI 60 cell line screen (SRB), Renal Cancer
SF-295 = test: NCI 60 cell line screen (SRB), CNS Cancer; conditions: SF-295 (CNS Cancer)

With COC1OC2(C)CCC3CCCC(CCOC(=O)c4ccc(C(=O)OCCC5CCCC6CCC7(C)OOC56C(OC)O7)cc4)C31OO2 (stereo not shown) [Compound 11, Bis-ester Dimer] the Log10GI50 (SK-OV-3) was −5.28 M, the Log10LC50 (SK-OV-3) was greater than −4.00 M and the Log10TGI (SK-OV-3) was greater than −4.00 M. It also gave a Log10GI50 (UACC-257) of −5.36 M, a Log10LC50 (UACC-257) greater than −4.00 M and a Log10TGI (UACC-257) greater than −4.00 M. The Log10GI50 (NCI-H23) was −6.03 M, the Log10LC50 (NCI-H23) was greater than −4.00 M and the Log10TGI (NCI-H23) was −4.19 M. For the same compound, the Log10GI50 (OVCAR-4) was −5.26 M, the Log10LC50 (OVCAR-4) was greater than −4.00 M and the Log10TGI (OVCAR-4) was greater than −4.00 M. It also gave a Log10GI50 (SK-MEL-5) of −6.00 M, a Log10LC50 (SK-MEL-5) greater than −4.00 M and a Log10TGI (SK-MEL-5) greater than −4.00 M. For the same compound, the Log10GI50 (NCI-H460) was −6.02 M, the Log10LC50 (NCI-H460) was greater than −4.00 M and the Log10TGI (NCI-H460) was greater than −4.00 M. The Log10GI50 (HL-60(TB)) was −7.42 M, the Log10LC50 (HL-60(TB)) was −5.26 M and the Log10TGI (HL-60(TB)) was −6.58 M. The Log10GI50 (HT29) was −5.90 M, the Log10LC50 (HT29) was greater than −4.00 M and the Log10TGI (HT29) was greater than −4.00 M. For the same compound, the Log10GI50 (MDA-MB-435) was −5.69 M, the Log10LC50 (MDA-MB-435) was greater than −4.00 M and the Log10TGI (MDA-MB-435) was −4.63 M. It also gave a Log10LC50 (SF-539) greater than −4.00 M, a Log10GI50 (M14) of −5.20 M and a Log10LC50 (M14) greater than −4.00 M. The Log10TGI (M14) was greater than −4.00 M, the Log10GI50 (MOLT-4) was −6.67 M and the Log10LC50 (MOLT-4) was greater than −4.00 M. The Log10TGI (MOLT-4; listed as Terephtalate Dimer) was −4.70 M, the Log10TGI (MOLT-4; listed as terephthalate dimer) was 6.20 M and the Log10GI50 (786-0) was −5.41 M. For the same compound, the Log10LC50 (786-0) was greater than −4.00 M, the Log10TGI (786-0) was greater than −4.00 M and the Log10GI50 (NCI-H226) was −5.26 M. For the same compound, the Log10LC50 (NCI-H226) was greater than −4.00 M, the Log10TGI (NCI-H226) was greater than −4.00 M and the Log10GI50 (OVCAR-5) was −5.45 M. It also gave a Log10LC50 (OVCAR-5) greater than −4.00 M, a Log10TGI (OVCAR-5) greater than −4.00 M and a Log10GI50 (SR) of −6.38 M. It also gave a Log10LC50 (SR) greater than −4.00 M, a Log10TGI (SR) of −5.17 M and a Log10GI50 (PC-3) of −6.51 M. For the same compound, the Log10LC50 (PC-3) was greater than −4.00 M, the Log10TGI (PC-3) was greater than −4.00 M and the Log10GI50 (CCRF-CEM) was −6.57 M. For the same compound, the Log10LC50 (CCRF-CEM) was −4.05 M, the Log10TGI (CCRF-CEM) was −4.89 M and the Log10GI50 (NCI-H522) was −5.66 M. It also gave a Log10LC50 (NCI-H522) greater than −4.00 M, a Log10TGI (NCI-H522) of −4.45 M and a Log10GI50 (TK-10) of −5.06 M. The Log10LC50 (TK-10) was greater than −4.00 M, the Log10TGI (TK-10) was greater than −4.00 M and the Log10GI50 (HCT-116) was −6.30 M. For the same compound, the Log10LC50 (HCT-116) was greater than −4.00 M, the Log10TGI (HCT-116) was greater than −4.00 M and the Log10GI50 (UACC-62) was −5.87 M. The Log10LC50 (UACC-62) was greater than −4.00 M, the Log10TGI (UACC-62) was greater than −4.00 M and the Log10GI50 (HCC-2998) was −4.56 M. It also gave a Log10LC50 (HCC-2998) greater than −4.00 M, a Log10TGI (HCC-2998) greater than −4.00 M and a Log10GI50 (MDA-MB231/ATCC) of −5.18 M. For the same compound, the Log10LC50 (MDA-MB231/ATCC) was greater than −4.00 M, the Log10TGI (MDA-MB231/ATCC) was greater than −4.00 M and the Log10GI50 (K-562) was −6.57 M. It also gave a Log10LC50 (K-562) greater than −4.00 M, a Log10TGI (K-562) greater than −4.00 M and a Log10GI50 (EKVX) of −5.20 M. It also gave a Log10LC50 (EKVX) greater than −4.00 M, a Log10TGI (EKVX) greater than −4.00 M and a Log10GI50 (MALME-3M) of −5.03 M. It also gave a Log10LC50 (MALME-3M) greater than −4.00 M, a Log10TGI (MALME-3M) greater than −4.00 M and a Log10GI50 (IGROVI) of −4.95 M. The Log10LC50 (IGROVI) was greater than −4.00 M, the Log10TGI (IGROVI) was greater than −4.00 M and the Log10GI50 (SK-MEL-2) was −5.47 M. The Log10LC50 (SK-MEL-2) was greater than −4.00 M, the Log10TGI (SK-MEL-2) was −5.04 M and the Log10GI50 (SNB-75) was −5.66 M. It also gave a Log10LC50 (SNB-75) greater than −4.00 M, a Log10GI50 (HOP-62) of −5.01 M and a Log10LC50 (HOP-62) greater than −4.00 M. It also gave a Log10TGI (HOP-62) greater than −4.00 M, a Log10GI50 (A498) greater than −4.00 M and a Log10LC50 (A498) greater than −4.00 M. For the same compound, the Log10TGI (A498) was greater than −4.00 M, the Log10GI50 (SF-295) was −5.49 M and the Log10LC50 (SF-295) was greater than −4.00 M. The Log10TGI (SF-295) was greater than −4.00 M.
